Key:
[1] = In vitro growth inhibitory concentration against human mammary carcinoma cell line MDA MB 468 using MTT assay; format: functional
[2] = Percent of apoptosis in MDA MB 468 Cell line determined by Annexin-V-FITC/PI analysis at 10 uM; format: functional, Homo sapiens
[3] = In vitro growth inhibitory concentration against human mammary carcinoma cell line MDA MB 468; format: functional
HCT-116 = assay: In vitro growth inhibitory concentration against human colon cancer cell line HCT 116; format: functional
[4] = Percent of apoptosis in MDA MB 468 Cell line determined by Annexin-V-FITC/PI analysis at 250 nM; format: functional, Homo sapiens

Question: With `COc1cc(/C=C/c2cccc(O)c2)cc(OC)c1` as the molecule, how does the GI50 [1] read?
Answer: Its GI50 is 0.96 µM.

Question: With `Oc1cccc(/C=C/c2ccc(F)c(F)c2)c1` as the molecule, how does the GI50 [1] read?
Answer: The GI50 was 1.6 µM.

Question: With `Oc1ccc(/C=C/c2cc(O)cc(O)c2)cc1` [RESVERATROL] as the molecule, how does the Apoptosis [2] read?
Answer: Its Apoptosis is 4%.

Question: And the GI50 [3]?
Answer: Its GI50 is greater than 40 µM.

Question: And the GI50 (HCT-116)?
Answer: The GI50 was greater than 40 µM.

Question: For `CC[C@@]1(O)C(=O)OCc2c1cc1n(c2=O)Cc2cc3ccccc3nc2-1` [CAMPTOTHECIN], which Apoptosis [4] is on record?
Answer: The Apoptosis was 37%.

Question: With `Oc1ccccc1/C=C/c1ccc(F)c(F)c1` as the molecule, how does the GI50 [1] read?
Answer: Its GI50 is 1.1 µM.

Question: With `COc1ccccc1/C=C/c1cccc(O)c1` as the molecule, how does the Apoptosis [2] read?
Answer: The Apoptosis was 20%.

Question: With `Oc1cccc(/C=C/c2ccccc2F)c1` as the molecule, how does the GI50 [1] read?
Answer: Its GI50 is 1.4 µM.

Reference: ChEMBL document CHEMBL1142677, “Synthesis, antitumor evaluation, and apoptosis-inducing activity of hydroxylated (E)-stilbenes” (2005)
